Earlier results, collected in PMC11302729, “Repurposing Hsp90 inhibitors as antimicrobials targeting two-component systems identifies compounds leading to loss of bacterial membrane integrity” (Microbiology Spectrum, 2024).

Columns and labels:
[1] = test system: CckA from Caulobacter crescentus; set-up: method as in PMID 29110989; settings: cited from earlier work
[2] = test system: PhoQ from Salmonella typhimurium; set-up: method as in PMID 29110989; settings: cited from earlier work

Row | Structure (SMILES) | IC50 [1] | IC50 [2]
1 | CCc1cc(-c2n[nH]c(C)c2-c2ccc3c(c2)OCCO3)c(O)cc1O [CCT018159] | 30 µM | 261 µM
2 | COc1ccc(-c2c(-c3cc(Cl)c(O)cc3O)n[nH]c2C)cc1 [Compound 5b] | 14 µM | 238 µM
